What was measured:
[1] = test system: control sera (pooled serum of ten healthy LUMC hospital workers; commercial negative donor pooled serum from the Dutch bloodbank); type: binding, human; design: Binding of Control serum LUMC to linear peptides / Binding of Control serum Blood-bank to linear peptides / Binding of Control serum LUMC to looped peptides / Binding of Control Serum Blood-Bank to Looped peptides / Binding of Control serum LUMC to linear peptides of the protein M of SARS-CoV Urbani / Binding of Control serum Blood-bank to linear peptides of the protein M of SARS-CoV Urbani / Binding of Control serum LUMC to looped peptides of the protein M of SARS-CoV Urbani / Binding of Control Serum Blood-Bank to Looped peptides of the protein M of SARS-CoV Urbani: unit not given here
[2] = test system: rabbit serum obtained by immunizing a rabbit with the SARS-CoV strain Frankfurt 1; type: binding; design: Binding of a rabbit serum to linear peptides / Binding of a rabbit serum to looped peptides / Rabbit serum linear peptides / Rabbit serum looped peptides / Binding of a rabbit serum to linear peptides of protein N of SARS-CoV Urbani (Rabbit serum linear peptides) / Binding of a rabbit serum to looped/cyclic peptides of protein N of SARS-CoV Urbani (Rabbit serum looped peptides): unit not given here
[3] = test system: antibodies in sera from SARS patients (sera 1a, 1b, 2, 6, 37, 62, London, SARS-yellow, SARS-green); type: binding, human; design: Binding of serum 6 to linear peptides of protein X1 of SARS-CoV Urbani / Binding of serum 37 to linear peptides of protein X1 of SARS-CoV Urbani / Binding of serum 6 to looped/cyclic peptide (PEPSCAN-ELISA) / Binding of serum 37 to looped/cyclic peptide (PEPSCAN-ELISA) / Binding of serum 37 to looped/cyclic peptides of protein X1 of SARS-CoV Urbani / Binding of serum 6 to linear peptides of protein X2 / Binding of serum 37 to linear peptides of protein X2 / Binding of serum 37 to looped/cyclic peptides of protein X2 of SARS-CoV Urbani / Binding of serum 6 to linear peptides of protein M of SARS-CoV Urbani / Binding of serum 37 to linear peptides of protein M of SARS-CoV Urbani / Binding of serum 6 to looped/cyclic peptides of protein M of SARS-CoV Urbani / Binding of serum 37 to looped/cyclic peptides of protein M of SARS-CoV Urbani / Binding of serum 6 to linear peptides of protein X3 of SARS-CoV Urbani / Binding of serum 37 to linear peptides of protein X3 of SARS-CoV Urbani / Binding of serum 37 to looped/cyclic peptides of protein X3 of SARS-CoV Urbani / Binding of serum 6 to linear peptides of protein X4 of SARS-CoV Urbani / Binding of serum 37 to linear peptides of protein X4 of SARS-CoV Urbani / Binding of serum 37 to looped/cyclic peptides of protein X4 of SARS-CoV Urbani / Binding of serum 6 to linear peptides of protein X5 of SARS-CoV Urbani / Binding of serum 37 to linear peptides of protein X5 of SARS-CoV Urbani / Binding of serum 37 to looped/cyclic peptides of protein X5 of SARS-CoV Urbani / Binding of serum 6 to linear peptides of protein N of SARS-CoV Urbani / Binding of serum 37 to linear peptides of protein N of SARS-CoV Urbani / Binding of serum 6 to linear peptide (PEPSCAN-ELISA) / Binding of serum 1a to looped/cyclic peptides of protein N of SARS-CoV Urbani / Binding of serum 1b to looped/cyclic peptides of protein N of SARS-CoV Urbani / Binding of serum 2 to looped/cyclic peptides of protein N of SARS-CoV Urbani / Binding of serum 6 to looped/cyclic peptides of protein N of SARS-CoV Urbani / Binding of serum 37 to looped/cyclic peptides of protein N of SARS-CoV Urbani / Binding of serum 62 to looped/cyclic peptides of protein N of SARS-CoV Urbani / Binding of serum London to looped/cyclic peptides of protein N of SARS-CoV Urbani / Binding of serum SARS-green to looped/cyclic peptides of protein N of SARS-CoV Urbani: unit not given here

| Sequence | Recognition of the peptide by sera of SARS-CoV infected individuals, and form (linear, looped/cyclic) in which it is recognized [3] | Binding of Control Serum Blood-Bank to Looped peptides of the protein M of SARS-CoV Urbani [1] | Binding of Control serum Blood-bank to linear peptides of the protein M of SARS-CoV Urbani [1] | Binding of Control serum LUMC to linear peptides of the protein M of SARS-CoV Urbani [1] | Binding of Control serum LUMC to looped peptides of the protein M of SARS-CoV Urbani [1] | Rabbit serum linear peptides [2] | Rabbit serum looped peptides [2] | Binding of serum 1a to linear peptides of protein M of SARS-CoV Urbani [3] | Binding of serum 1b to linear peptides of protein M of SARS-CoV Urbani [3] | Binding of serum 2 to linear peptides of protein M of SARS-CoV Urbani [3] | Binding of serum 6 to linear peptides of protein M of SARS-CoV Urbani [3] | Binding of serum 37 to linear peptides of protein M of SARS-CoV Urbani [3] | Binding of serum 62 to linear peptides of protein M of SARS-CoV Urbani [3] | Binding of serum London to linear peptides of protein M of SARS-CoV Urbani [3] | Binding of serum SARS-green to linear peptides of protein M of SARS-CoV Urbani [3] | Binding of serum SARS-yellow to linear peptides of protein M of SARS-CoV Urbani [3] | further results |
| --- | --- | --- | --- | --- | --- | --- | --- | --- | --- | --- | --- | --- | --- | --- | --- | --- | --- |
| MRCWLCWKCKSKNPL | recognized in linear form | – | – | – | – | – | – | – | – | – | – | – | – | – | – | – | Binding of Control Serum Blood-Bank to Looped peptides [1]: 0.2; Binding of Control serum Blood-bank to linear peptides [1]: 0.9; Binding of Control serum LUMC to linear peptides [1]: 0.8; Binding of Control serum LUMC to looped peptides [1]: 0.4; Binding of a rabbit serum to linear peptides [2]: 0.1; Binding of a rabbit serum to looped peptides [2]: 0.5; Binding of serum 1a to looped/cyclic peptide (PEPSCAN-ELISA) [3]: 0.2; Binding of serum 1b to looped/cyclic peptide (PEPSCAN-ELISA) [3]: 0.2; Binding of serum 2 to looped/cyclic peptide (PEPSCAN-ELISA) [3]: 0.0; Binding of serum 6 to looped/cyclic peptide (PEPSCAN-ELISA) [3]: 0.1; Binding of serum 37 to looped/cyclic peptide (PEPSCAN-ELISA) [3]: 0.2; Binding of serum 62 to looped/cyclic peptide (PEPSCAN-ELISA) [3]: 0.3; Binding of serum London to looped/cyclic peptide (PEPSCAN-ELISA) [3]: 0.2; Binding of serum SARS-green to looped/cyclic peptide (PEPSCAN-ELISA) [3]: 0.1; Binding of serum SARS-yellow to looped/cyclic peptide (PEPSCAN-ELISA) [3]: 0.2 |
| TRPLMESELVIGAVI | recognized in looped/cyclic form | 1.1 | 0.9 | 1.0 | 1.0 | 0.2 | 0.3 | 0.8 | 0.7 | 0.7 | 0.6 | 0.7 | 0.6 | 0.3 | 0.8 | 0.2 | – |
| SQRVGTDSGFAAYNR | – | 0.7 | 0.9 | 1.0 | 0.6 | 0.2 | 0.1 | 0.8 | 0.6 | 0.4 | 0.6 | 0.5 | 0.4 | 0.4 | 0.5 | 0.5 | Binding of serum 1a to looped/cyclic peptides of protein M of SARS-CoV Urbani [3]: 0.5; Binding of serum 1b to looped/cyclic peptides of protein M of SARS-CoV Urbani [3]: 0.4; Binding of serum 2 to looped/cyclic peptides of protein M of SARS-CoV Urbani [3]: 0.7; Binding of serum 6 to looped/cyclic peptides of protein M of SARS-CoV Urbani [3]: 0.6; Binding of serum 37 to looped/cyclic peptides of protein M of SARS-CoV Urbani [3]: 0.2; Binding of serum 62 to looped/cyclic peptides of protein M of SARS-CoV Urbani [3]: 0.5; Binding of serum London to looped/cyclic peptides of protein M of SARS-CoV Urbani [3]: 0.2; Binding of serum SARS-green to looped/cyclic peptides of protein M of SARS-CoV Urbani [3]: 0.4; Binding of serum SARS-yellow to looped/cyclic peptides of protein M of SARS-CoV Urbani [3]: 0.6 |

Source: patent publication US20070128217A1 (priority 2003, published 2007)
